{"source": "the supplement of paper PMC6411743"}
{"compound": "Nc1ncnc2c1ncn2[C@@H]1O[C@H](COP(=O)(O)OP(=O)(O)OP(=O)(O)O)[C@@H](O)[C@H]1O [adenosine triphosphate]", "assay": "pEC50 of ATP-induced change in protein thermal stability (2D-TPP)", "experimental": "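2D thermal proteome profiling in mechanically disrupted Jurkat crude lysate. Lysate was treated 10 min at room temperature with Na-ATP (0, 0.005, 0.05, 0.5, 2 mM), heated to 12 temperatures (42-63.9 °C) for 3 min, and soluble protein was quantified by TMT10 LC-MS/MS. pEC50 is the median over replicates of dose-response fits at the lowest temperature showing a fold change of at least 1.5 (FDR-controlled hits).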"}
{"target": "FDXR (effect direction: stabilized) (UniProt P22570)", "pEC50": 3.26}
{"target": "RNF20 (effect direction: stabilized) (UniProt Q5VTR2)", "pEC50": "< 2.7"}
{"target": "NUBP1 (effect direction: stabilized) (UniProt P53384)", "sequence (P53384 whole entry)": "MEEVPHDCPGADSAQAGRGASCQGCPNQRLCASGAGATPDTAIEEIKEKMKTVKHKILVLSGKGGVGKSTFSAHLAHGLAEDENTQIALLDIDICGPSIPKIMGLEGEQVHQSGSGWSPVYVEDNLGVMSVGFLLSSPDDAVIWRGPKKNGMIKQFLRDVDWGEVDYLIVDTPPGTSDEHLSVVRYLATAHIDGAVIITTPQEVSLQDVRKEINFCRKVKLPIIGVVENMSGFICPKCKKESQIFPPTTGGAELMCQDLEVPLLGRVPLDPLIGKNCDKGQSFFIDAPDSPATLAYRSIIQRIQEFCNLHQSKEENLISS", "pEC50": 3.44}
{"target": "PSMC2 (effect direction: stabilized) (UniProt P35998)", "sequence (P35998 whole entry)": "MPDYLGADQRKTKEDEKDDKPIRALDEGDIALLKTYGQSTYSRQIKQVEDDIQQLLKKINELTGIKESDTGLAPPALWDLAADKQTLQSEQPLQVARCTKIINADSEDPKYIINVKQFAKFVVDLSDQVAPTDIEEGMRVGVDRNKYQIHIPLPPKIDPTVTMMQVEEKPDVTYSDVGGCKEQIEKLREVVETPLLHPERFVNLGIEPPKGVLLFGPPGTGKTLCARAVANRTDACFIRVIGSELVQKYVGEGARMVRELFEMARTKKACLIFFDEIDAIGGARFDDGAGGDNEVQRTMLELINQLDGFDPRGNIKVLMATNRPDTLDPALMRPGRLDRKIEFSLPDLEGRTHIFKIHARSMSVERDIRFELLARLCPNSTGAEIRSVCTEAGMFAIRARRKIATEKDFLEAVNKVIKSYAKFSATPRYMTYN", "pEC50": 4.28}
{"target": "PARN (effect direction: stabilized) (UniProt O95453)", "pEC50": "< 2.7"}
{"target": "FAHD2A (effect direction: destabilized) (UniProt Q96GK7)", "pEC50": "< 2.7"}
{"target": "AK2 (effect direction: stabilized) (UniProt P54819)", "pEC50": 4.01}
{"target": "GLOD4 (effect direction: stabilized) (UniProt Q9HC38)", "pEC50": "< 2.7"}
{"target": "POP1 (effect direction: destabilized) (UniProt Q99575)", "pEC50": "< 2.7"}
{"target": "GTPBP1 (effect direction: stabilized) (UniProt O00178)", "pEC50": 3.28}
{"target": "TLN1 (effect direction: stabilized) (UniProt Q9Y490)", "sequence (Q9Y490 whole entry)": "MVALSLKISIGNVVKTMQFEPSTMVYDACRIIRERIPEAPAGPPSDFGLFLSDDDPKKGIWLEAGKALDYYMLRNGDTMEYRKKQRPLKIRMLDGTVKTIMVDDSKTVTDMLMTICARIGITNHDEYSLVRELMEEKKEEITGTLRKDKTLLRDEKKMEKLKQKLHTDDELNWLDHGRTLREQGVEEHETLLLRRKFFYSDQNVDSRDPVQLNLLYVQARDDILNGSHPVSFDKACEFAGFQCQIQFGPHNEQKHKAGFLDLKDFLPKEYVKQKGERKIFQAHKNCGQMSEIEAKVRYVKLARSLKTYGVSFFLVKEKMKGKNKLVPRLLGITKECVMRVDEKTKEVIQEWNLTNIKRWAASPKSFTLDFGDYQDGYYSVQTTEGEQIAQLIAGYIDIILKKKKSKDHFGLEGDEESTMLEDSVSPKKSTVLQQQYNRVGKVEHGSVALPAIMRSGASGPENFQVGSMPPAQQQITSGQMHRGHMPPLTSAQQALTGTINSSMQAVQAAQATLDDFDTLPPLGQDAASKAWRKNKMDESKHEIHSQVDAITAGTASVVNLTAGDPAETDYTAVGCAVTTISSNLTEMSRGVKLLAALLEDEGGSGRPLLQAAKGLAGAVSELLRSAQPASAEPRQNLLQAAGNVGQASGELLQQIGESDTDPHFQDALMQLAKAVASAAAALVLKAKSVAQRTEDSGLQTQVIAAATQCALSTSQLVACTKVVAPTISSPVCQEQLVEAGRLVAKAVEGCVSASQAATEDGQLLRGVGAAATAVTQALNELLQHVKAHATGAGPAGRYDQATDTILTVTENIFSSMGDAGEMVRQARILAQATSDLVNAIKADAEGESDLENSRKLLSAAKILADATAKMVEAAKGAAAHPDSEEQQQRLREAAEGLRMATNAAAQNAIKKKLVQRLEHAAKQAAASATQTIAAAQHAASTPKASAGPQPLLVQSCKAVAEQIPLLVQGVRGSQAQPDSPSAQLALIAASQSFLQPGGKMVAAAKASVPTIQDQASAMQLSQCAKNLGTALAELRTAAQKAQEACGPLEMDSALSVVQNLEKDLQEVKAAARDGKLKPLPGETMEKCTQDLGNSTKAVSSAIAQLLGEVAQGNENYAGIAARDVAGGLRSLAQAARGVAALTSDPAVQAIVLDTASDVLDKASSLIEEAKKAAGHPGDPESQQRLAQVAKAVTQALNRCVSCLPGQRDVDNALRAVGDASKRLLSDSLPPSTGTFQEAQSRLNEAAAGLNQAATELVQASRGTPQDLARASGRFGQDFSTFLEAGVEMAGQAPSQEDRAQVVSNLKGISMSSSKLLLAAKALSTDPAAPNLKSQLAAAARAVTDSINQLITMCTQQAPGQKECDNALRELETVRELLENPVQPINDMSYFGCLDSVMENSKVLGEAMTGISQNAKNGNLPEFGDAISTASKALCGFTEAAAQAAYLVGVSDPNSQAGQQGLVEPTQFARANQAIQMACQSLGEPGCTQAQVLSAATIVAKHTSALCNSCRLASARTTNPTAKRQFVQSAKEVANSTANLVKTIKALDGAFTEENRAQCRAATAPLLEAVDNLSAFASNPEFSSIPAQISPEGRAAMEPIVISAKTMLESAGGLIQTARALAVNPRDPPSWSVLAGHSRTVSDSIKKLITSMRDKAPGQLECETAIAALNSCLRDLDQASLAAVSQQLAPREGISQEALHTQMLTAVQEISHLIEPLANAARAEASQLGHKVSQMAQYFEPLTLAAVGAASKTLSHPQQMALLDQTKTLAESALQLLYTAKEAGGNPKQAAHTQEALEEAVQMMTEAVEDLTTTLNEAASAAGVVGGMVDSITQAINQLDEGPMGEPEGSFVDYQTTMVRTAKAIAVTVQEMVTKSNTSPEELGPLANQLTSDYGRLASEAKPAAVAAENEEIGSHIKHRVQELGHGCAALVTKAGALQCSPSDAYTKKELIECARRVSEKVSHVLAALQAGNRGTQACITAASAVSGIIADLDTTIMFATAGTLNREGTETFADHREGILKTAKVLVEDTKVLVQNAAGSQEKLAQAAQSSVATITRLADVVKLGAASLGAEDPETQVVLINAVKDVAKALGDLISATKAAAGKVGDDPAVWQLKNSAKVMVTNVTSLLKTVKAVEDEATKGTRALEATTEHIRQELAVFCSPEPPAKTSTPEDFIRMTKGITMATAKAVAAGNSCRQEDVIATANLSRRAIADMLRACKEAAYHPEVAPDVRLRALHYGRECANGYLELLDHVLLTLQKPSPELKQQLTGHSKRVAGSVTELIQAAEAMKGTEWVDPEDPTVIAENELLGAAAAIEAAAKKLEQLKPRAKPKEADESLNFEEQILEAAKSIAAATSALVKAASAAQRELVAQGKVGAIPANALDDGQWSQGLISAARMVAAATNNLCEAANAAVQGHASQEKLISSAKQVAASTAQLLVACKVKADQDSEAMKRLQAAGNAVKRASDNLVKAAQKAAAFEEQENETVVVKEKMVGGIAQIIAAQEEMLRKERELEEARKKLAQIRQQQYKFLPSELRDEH", "pEC50": "< 2.7"}
{"target": "PDK3 (effect direction: stabilized) (UniProt Q15120)", "sequence (Q15120 whole entry, looked up)": "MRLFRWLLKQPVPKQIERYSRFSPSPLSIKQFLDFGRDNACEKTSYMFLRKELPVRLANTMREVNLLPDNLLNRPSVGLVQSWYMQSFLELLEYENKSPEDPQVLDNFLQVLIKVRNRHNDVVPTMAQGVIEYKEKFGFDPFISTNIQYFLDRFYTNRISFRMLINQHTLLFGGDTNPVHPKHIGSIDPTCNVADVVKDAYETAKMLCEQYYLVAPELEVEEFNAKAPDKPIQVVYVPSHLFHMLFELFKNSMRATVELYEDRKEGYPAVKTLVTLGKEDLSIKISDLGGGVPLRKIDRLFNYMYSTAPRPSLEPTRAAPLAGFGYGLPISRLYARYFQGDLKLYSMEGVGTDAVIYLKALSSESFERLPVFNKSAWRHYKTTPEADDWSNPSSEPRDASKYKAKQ", "pEC50": 2.84}
{"target": "SMG6 (effect direction: stabilized) (UniProt Q86US8)", "pEC50": 3.49}
{"target": "MDH2 (effect direction: stabilized) (UniProt P40926)", "pEC50": 2.78}
{"target": "PFN2 (effect direction: stabilized) (UniProt P35080)", "pEC50": 3.51}
{"target": "UniProt Q9Y2U5 (effect direction: stabilized)", "pEC50": 3.72}
{"target": "SLBP (effect direction: stabilized) (UniProt Q14493)", "pEC50": 3.47}
{"target": "EIF4A3 (effect direction: stabilized) (UniProt P38919)", "pEC50": 3.68}
{"target": "RAD54L2 (effect direction: stabilized) (UniProt Q9Y4B4)", "pEC50": 3.3}
{"target": "MYH9 (effect direction: stabilized) (UniProt P35579)", "pEC50": 3.6}
{"target": "LRPPRC (effect direction: stabilized) (UniProt P42704)", "pEC50": 3.65}
{"target": "HIST1H1B (effect direction: destabilized) (UniProt P16401)", "pEC50": "< 2.7"}
{"target": "UniProt P84085 (effect direction: destabilized)", "pEC50": "< 2.7"}
{"target": "SMARCAD1 (effect direction: stabilized) (UniProt Q9H4L7)", "pEC50": 3.94}
{"target": "MCM3 (effect direction: stabilized) (UniProt P25205)", "pEC50": 3.53}
{"target": "UGDH (effect direction: stabilized) (UniProt O60701)", "pEC50": 3.11}
{"target": "PEF1 (effect direction: destabilized) (UniProt Q9UBV8)", "pEC50": 2.86}
{"target": "UniProt O43929 (effect direction: stabilized)", "pEC50": 3.63}
{"target": "NOP2 (effect direction: destabilized) (UniProt P46087)", "pEC50": 2.94}
{"target": "UniProt P28482 (effect direction: stabilized)", "pEC50": 3.16}
{"target": "UniProt Q96C57 (effect direction: destabilized)", "pEC50": 4.35}
{"target": "UniProt O60610 (effect direction: stabilized)", "pEC50": "< 2.7"}
{"target": "PGAM1 (effect direction: destabilized) (UniProt P18669)", "pEC50": "< 2.7"}
{"target": "ANXA6 (effect direction: stabilized) (UniProt P08133)", "pEC50": "< 2.7"}
{"target": "PPT1 (effect direction: stabilized) (UniProt P50897)", "pEC50": 3.3}
{"target": "UniProt Q9HCP0 (effect direction: stabilized)", "pEC50": 3.72}
{"target": "UniProt Q92600 (effect direction: stabilized)", "pEC50": 3.18}
{"target": "PABPN1 (effect direction: destabilized) (UniProt Q86U42)", "sequence (Q86U42 whole entry)": "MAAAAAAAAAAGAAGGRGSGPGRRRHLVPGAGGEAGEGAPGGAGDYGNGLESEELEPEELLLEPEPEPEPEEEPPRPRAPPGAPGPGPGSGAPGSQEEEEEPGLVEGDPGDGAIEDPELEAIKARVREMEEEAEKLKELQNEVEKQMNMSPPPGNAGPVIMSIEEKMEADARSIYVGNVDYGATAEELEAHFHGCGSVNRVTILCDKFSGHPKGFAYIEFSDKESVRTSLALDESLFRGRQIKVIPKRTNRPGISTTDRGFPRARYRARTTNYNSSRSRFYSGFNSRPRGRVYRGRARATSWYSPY", "pEC50": 3.23}
{"target": "HSPA14 (effect direction: stabilized) (UniProt Q0VDF9)", "pEC50": 2.8}
{"target": "ARPC3 (effect direction: stabilized) (UniProt O15145)", "pEC50": 2.88}
{"target": "NANP (effect direction: destabilized) (UniProt Q8TBE9)", "pEC50": 3.08}
{"target": "GNAS (effect direction: stabilized) (UniProt P63092)", "sequence (P63092 whole entry, looked up)": "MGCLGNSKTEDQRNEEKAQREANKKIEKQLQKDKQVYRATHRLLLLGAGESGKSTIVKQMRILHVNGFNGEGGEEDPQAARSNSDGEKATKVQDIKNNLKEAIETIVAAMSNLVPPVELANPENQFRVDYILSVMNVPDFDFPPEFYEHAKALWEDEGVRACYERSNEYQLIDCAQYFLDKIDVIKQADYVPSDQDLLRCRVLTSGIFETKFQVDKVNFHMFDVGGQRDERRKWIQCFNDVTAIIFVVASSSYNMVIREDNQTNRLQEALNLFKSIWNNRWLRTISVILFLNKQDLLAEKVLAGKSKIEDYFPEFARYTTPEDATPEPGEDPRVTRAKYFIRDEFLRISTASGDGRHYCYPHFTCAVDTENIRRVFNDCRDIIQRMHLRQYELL", "pEC50": "< 2.7"}
{"target": "BNIP2 (effect direction: stabilized) (UniProt Q12982)", "pEC50": "< 2.7"}
{"target": "KLC2 (effect direction: stabilized) (UniProt Q9H0B6)", "pEC50": 4.06}
{"target": "PRCP (effect direction: stabilized) (UniProt P42785)", "pEC50": 2.94}
{"target": "POLR2E (effect direction: destabilized) (UniProt P19388)", "pEC50": 3.45}
{"target": "TSEN2 (effect direction: stabilized) (UniProt Q8NCE0)", "pEC50": 3.12}
{"target": "EML4 (effect direction: destabilized) (UniProt Q9HC35)", "pEC50": 2.93}
{"target": "HEXB (effect direction: stabilized) (UniProt P07686)", "pEC50": 3.01}
{"target": "HSP90AB1 (effect direction: stabilized) (UniProt P08238)", "pEC50": "< 2.7"}
{"target": "UniProt Q86U38 (effect direction: stabilized)", "pEC50": "< 2.7"}
{"target": "CENPE (effect direction: stabilized) (UniProt Q02224)", "pEC50": 4.04}
{"target": "BOP1 (effect direction: stabilized) (UniProt Q14137)", "pEC50": "< 2.7"}
{"target": "SCPEP1 (effect direction: stabilized) (UniProt Q9HB40)", "pEC50": 3.37}
{"target": "THUMPD3 (effect direction: stabilized) (UniProt Q9BV44)", "pEC50": 3.1}
{"target": "PPM1B (effect direction: destabilized) (UniProt O75688)", "pEC50": 3.15}
{"target": "UniProt Q9BY42 (effect direction: destabilized)", "sequence (Q9BY42 whole entry)": "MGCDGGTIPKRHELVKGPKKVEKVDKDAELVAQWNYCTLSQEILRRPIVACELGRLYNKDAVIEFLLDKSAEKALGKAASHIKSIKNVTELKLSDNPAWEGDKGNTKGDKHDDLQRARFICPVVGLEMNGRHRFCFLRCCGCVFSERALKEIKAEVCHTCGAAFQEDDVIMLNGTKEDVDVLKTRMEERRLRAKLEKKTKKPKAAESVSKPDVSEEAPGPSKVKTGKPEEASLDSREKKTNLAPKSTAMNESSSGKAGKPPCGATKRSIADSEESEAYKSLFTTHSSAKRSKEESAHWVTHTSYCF", "pEC50": 3.25}
{"target": "KATNAL1 (effect direction: stabilized) (UniProt Q9BW62)", "pEC50": 3.26}
{"target": "STAG2 (effect direction: stabilized) (UniProt Q8N3U4)", "pEC50": 4.09}
{"target": "UniProt Q5JUR7 (effect direction: stabilized)", "pEC50": 3.36}
{"target": "GTF3A (effect direction: stabilized) (UniProt Q92664)", "pEC50": 3.03}
{"target": "RFK (effect direction: stabilized) (UniProt Q969G6)", "pEC50": 4.07}
{"target": "DDX11L8 (effect direction: stabilized) (UniProt A8MPP1)", "pEC50": 3.15}
{"target": "ACLY (effect direction: stabilized) (UniProt P53396)", "pEC50": 3.16}
{"target": "DYRK1A (effect direction: stabilized) (UniProt Q13627)", "pEC50": 3.49}
{"target": "UniProt O14757 (effect direction: stabilized)", "pEC50": 3.26}
{"target": "SNX6 (effect direction: stabilized) (UniProt Q9UNH7)", "pEC50": "< 2.7"}
{"target": "RABGEF1 (effect direction: stabilized) (UniProt Q9UJ41)", "pEC50": 3.08}
{"target": "NT5C2 (effect direction: stabilized) (UniProt P49902)", "pEC50": 2.82}
{"target": "OGDH (effect direction: stabilized) (UniProt Q02218)", "pEC50": 3.3}
{"target": "GPN1 (effect direction: destabilized) (UniProt Q9HCN4)", "pEC50": 2.83}
{"target": "UniProt Q8NBU5 (effect direction: stabilized)", "pEC50": 3.06}
{"target": "UniProt O43847 (effect direction: stabilized)", "pEC50": "< 2.7"}
{"target": "PHKA1 (effect direction: stabilized) (UniProt P46020)", "pEC50": 2.87}
{"target": "ZCCHC9 (effect direction: destabilized) (UniProt Q8N567)", "pEC50": "< 2.7"}
{"target": "PHACTR4 (effect direction: stabilized) (UniProt Q8IZ21)", "pEC50": 4.03}
{"target": "SNX1 (effect direction: stabilized) (UniProt Q13596)", "pEC50": "< 2.7"}
{"target": "WDR1 (effect direction: stabilized) (UniProt O75083)", "pEC50": "< 2.7"}
{"target": "HSD17B7 (effect direction: stabilized) (UniProt P56937)", "pEC50": 3.22}
{"target": "RELA (effect direction: stabilized) (UniProt Q04206)", "pEC50": "< 2.7"}
{"target": "UniProt O14965 (effect direction: stabilized)", "pEC50": 3.25}
{"target": "ANP32E (effect direction: stabilized) (UniProt Q9BTT0)", "sequence (Q9BTT0 whole entry)": "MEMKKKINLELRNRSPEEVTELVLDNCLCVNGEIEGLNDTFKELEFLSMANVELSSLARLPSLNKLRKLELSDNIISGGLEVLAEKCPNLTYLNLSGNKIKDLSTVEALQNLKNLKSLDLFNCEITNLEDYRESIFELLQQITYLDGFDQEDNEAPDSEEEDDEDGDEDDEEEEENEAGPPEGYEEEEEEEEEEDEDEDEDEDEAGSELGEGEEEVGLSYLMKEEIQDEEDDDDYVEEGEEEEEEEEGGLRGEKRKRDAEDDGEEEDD", "pEC50": "< 2.7"}
{"target": "UniProt P62081 (effect direction: destabilized)", "pEC50": 3.68}
{"target": "HSPA8 (effect direction: stabilized) (UniProt P11142)", "pEC50": 4.09}
{"target": "NCAPH (effect direction: stabilized) (UniProt Q15003)", "pEC50": 3.5}
{"target": "RPL34 (effect direction: destabilized) (UniProt P49207)", "pEC50": 4.92}
{"target": "UniProt Q02750 (effect direction: stabilized)", "pEC50": 4.06}
{"target": "PSMD8 (effect direction: stabilized) (UniProt P48556)", "pEC50": 4.12}
{"target": "UniProt O15530 (effect direction: stabilized)", "pEC50": 3.24}
{"target": "CTSB (effect direction: stabilized) (UniProt P07858)", "pEC50": 3.34}
{"target": "MYBBP1A (effect direction: destabilized) (UniProt Q9BQG0)", "pEC50": 2.77}
{"target": "UniProt O14920 (effect direction: stabilized)", "pEC50": 3.5}
{"target": "RBM26 (effect direction: stabilized) (UniProt Q5T8P6)", "pEC50": 3.67}
